These results are taken from patent US9579406B2, “Phospholipid ether analogs as agents for detecting and locating cancer, and methods thereof” (Cellectar, Inc., priority 2004, dated 2017).

The test system of data set [1] is human RL-251 adrenal tumor xenograft. Nature of the data set: Time course in human RL-251 adrenal cancer xenograft. The arrangement: species or system SCID mouse. Conditions: mouse, in vivo. The text has this:
(§1) NM404 has now been evaluated in 27 animal tumor models, including several lung, and it is clear that once the agent enters tumor cells, it reaches a metabolic dead end and becomes trapped. […] NM404 is also retained in spontaneous murine lung tumors (FIG. 13). Using ^125I-labeled NM404, the inventors have been able to image mammary and prostate tumors in mice in excess of 60 days. […] Imaging and tissue distribution studies performed in mouse models aimed at determining the uptake characteristics in a wide variety of tumor models are summarized in Table 2.
A general note: Xenograft models place foreign cells or tissue in a host animal.

Data set [2] concerns non-small cell lung cancer. Kind of data set: Planar gamma-camera scintigraphy with 131I-NM-404 in NSCLC patients. Conditions: time points examined.
Description: The preparation dispensed by the Nuclear Pharmacy will be certified as sterile and pyrogen-free. The subject will be monitored for adverse reactions during and after the infusion. Vital signs will be checked immediately after the infusion, and at 60 minute intervals up to four hours post-injection. They will be observed for adverse events throughout this time. […] Vital signs will be monitored at these times. Any adverse reactions experienced by the subjects will be recorded.
A short description of data set [3]: Blood plasma kinetics in rats. The format is in vivo. Conditions: rat.
The nature of data set [4]: Acute GLP toxicology, single iv dose, 14 days observation, rats. The class given is in vivo. As for the experimental part:
Drug vehicle and drug product were provided to Dr. Kostyniak by Dr. Raymond Counsell of the University of Michigan for testing as described in the appended synopses of Study 27 and Study 28. […] This toxicology study was performed under GLP conditions.
This toxicology study was performed under GLP conditions.
The control and test rats were injected intravenously in the lateral tail vein. The rats were injected with the test or control article intravenously at 2 ml/kg of body weight using a 25 gauge needle and a 1-ml syringe. The injections were given by alternating rats from the control group with rats from the test group. The injections were given cautiously over a 30 second to one minute time interval. The injection to control rat #27-01 was given at 9:03 am and last injection to test rat #27-16 was given at 11:01 am.
The rats were observed by LAF personnel for signs of acute toxicity from the time of injection until […]. The rats were weighed five (5) times a week (Monday through Friday) and their body weights, recorded in […]. On Dec. […] A heart puncture was then performed using a 20 gauge needle and a 10 ml syringe to collect the blood samples for the hematological CBC and the clinical blood chemistries. The rats were exsanguinated to cause death. The thymus, heart, lungs, spleen, kidneys, liver, brain, and testes were collected, examined grossly, weighed and sectioned for pathology. The tissue samples (except thymus) were placed in jars of “Z-fix” fixative for histology.
Sixteen (16) Sprague-Dawley rats were received from Harlan-Sprague Dawley, Indianapolis, Ind. […] They were housed at the Laboratory Animal Facility and given food and water ad lib. Each rat was given a two-part number starting with 27 (the study number) and followed by a ‘unique’ number of ‘01’ to ‘16’ (numerical). Each rat was ear punched in the right ear with the unique number of ‘01’ to ‘16’. The control rats were numbered from #27-01 to #27-08 and the test rats were numbered from #27-09 to #27-16. The unique numbers were also applied to each cage indicating which rats were housed within that cage. There were four cages of control rats and four cages of test rats. […] The two groups of eight (8) rats were established by random assignment. The rats were weighed daily until the termination of the study on Day 14.
Safety: On Day 14, the blood samples for both groups will be analyzed for hematology and clinical chemistry. Additionally, the following organs will be removed for pathology report and histology slides: brain, lung, liver, heart, kidney, spleen, and testes. A compilation chart of organ weights with organ/weight ratios for each rat may be compiled.

A further data set relates to Prostate MatLyLu. Nature of the data set: Tumor models examined with NM404 (Table 2). The format is in vivo, Rat. Conditions: Adenocarcinoma.
Excerpt: as §1
(§2) Although tumor retention can be explained by a lack of metabolic phospholipase enzymes in the tumor cell membranes, the exact mechanism of tumor cell uptake is unknown. […] The inventors are currently evaluating the selectivity of NM404 in a unique mouse tumor model developed at Wisconsin, wherein both preneoplastic hyperplasias and malignant adenocarcinomas form spontaneously in the mammary gland. […] If this initial observation is validated, then via genomic and or proteomic analysis the inventors may be able to identify a key genetic difference between malignant tumors and their non malignant predecessor cells. This could identify a completely new molecular therapeutic target that may be universal for all types of cancer.

Another data set relates to Mammary MCF-7. Nature of the data set: Tumor models examined with NM404 (Table 2). The format is in vivo, Rat. The following applies: Adenocarcinoma.
Excerpt: as §1, §2

The subject of a further data set is Walker-256. Kind of data set: Tumor models examined with NM404 (Table 2). The following applies: Carcinosarcoma. The class given is in vivo, Rat.
Excerpt: as §1, §2

The test system of data set [5] is human PC-3 prostate tumor xenografts. Nature of the data set: Scintigraphy and tissue distribution in SCID mice bearing human PC-3 prostate tumor xenografts. The format is in vivo. The following applies: day 5. From the text:
Tumor uptake, however, continued to increase up until day 5 when it reached 18% injected dose per gram of tumor. […] Tumor to background tissue ratios exceeded 4, 6.8, 23, and 9 in blood, liver, muscle, and prostate, respectively, 3 days after injection and continued to improve at 5 and 8 days. Again, although thyroid levels ranged from 26 to 54% injected dose per gram of tissue, these levels are actually quite low and represent an extremely small percentage of the injected dose when the exceedingly small mass of the organ is considered and the data are presented on a percent administered dose per organ basis.

A short description of data set [6]: Human safety study of unlabeled NM404 in normal volunteers. The class given is in vivo. The procedure:
Formal toxicology studies of NM404 in male rats and rabbits were performed at the Toxicology Research Center of the State University of New York at Buffalo under the direction of Dr. Paul Kostyniak. Drug vehicle and drug product were provided to Dr. Kostyniak by Dr. Raymond Counsell of the University of Michigan for testing as described in the appended synopses of Study 27 and Study 28. […] Human safety studies of unlabeled NM404 were initiated in normal male humans at a mass of 10 times the anticipated imaging dose and about 21 times the anticipated therapy dose. […] This toxicology study was performed under GLP conditions.
Safety assessment in normal male subjects healthy normal female subjects were carried out and it was determined that a dose level of 3 μg/kg of C-NM-404 is safe to administer to male subjects. […] A dose level of 3 μg/kg of C-NM-404 is safe to administer to female subjects.

The test system of data set [7] is Walker-256 carcinosarcoma. Kind of data set: Tissue distribution of radioactivity in rats bearing Walker-256 carcinosarcoma. The format is in vivo, rat.
Where [8] appears, read: male rats, 2 mg/ml at 2 ml/kg iv, 14 days.
[9] abbreviates: male rats, 2 mg/ml at 2 ml/kg iv, day 14.

Like-named read-outs stand apart in the source and are kept apart here.

Take `C[N+](C)(C)CCOP(=O)([O-])OCCCCCCCCCCCCCCCCCCc1ccc([125I])cc1` [Compound I-125-NM404]: in [1], the tumor retention result is given as “retention is evident even after 20 days”.

As a reminder, the half-life is the time in which the quantity being followed falls by half. As for `C[N+](C)(C)CCOP(=O)([O-])OCCCCCCCCCCCCCCCCCCc1ccc(I)cc1` [NM-404, 18-(4-iodophenyl)-octadecylphosphocholine], the urinary bladder radioactivity result in data set [2] is reported as “lack of urinary bladder radioactivity”. In addition, the half-life in [3] (read-out: distribution phase half life (converted)) was 4.86 h. The half-life in data set [3] (read-out: elimination half life time in plasma (converted)) was roughly 209 h. In data set [4] (setting [8]), the “acute toxicologic effects (conclusion)” value is on record as “No acute toxicologic effects attributable to the test article had been found”; the behavior entry is reported as “No unusual behavior was noted”; the “mean body weights, test versus control group” value is reported as “not significantly different”; the “tail vein injection site reactions” value is “no adverse tissue reactions were noted”. In addition, in [4] (setting [9]), the “clinical blood chemistries and hematology, t-test versus control” value is “no significant differences found”; the “gross examination of tissues” value is “No gross lesions were noted”; the histopathology of organs result is recorded as “no changes in the histopathology of the organs examined that can be attributed to the administration of the test material”. Also, the toxic effects result in data set [4] (male rats, 4 mg/kg (Study 27)) is on record as “no significant toxic effects were noted”. Further, the acute toxicity result in [4] (unlabeled, 1200 times the anticipated imaging mass dose) is “no acute toxicities were found”. In the data set with Prostate MatLyLu, the “NM404 Tumor Localization” value is on record as “Yes (Localization defined as >5% injected dose per gram tumor basis based on tissue distribution data)”. In the data set on Mammary MCF-7, the “NM404 Tumor Localization” value is on record as “Yes (Localization defined as >5% injected dose per gram tumor basis based on tissue distribution data)”. In addition, in the data set on Walker-256, the “NM404 Tumor Localization” value is “Yes (Localization defined as >5% injected dose per gram tumor basis based on tissue distribution data)”. Also, the tumor uptake in data set [5] is 18 % injected dose per gram of tumor. Also, in [6] (female subjects), the “dose level safe to administer” value was determined as 3 µg/kg. The “dose level safe to administer” value in data set [6] (male subjects) is 3 µg/kg. Besides, the toxicity entry in data set [6] (normal male humans, 10 times the anticipated imaging dose) is given as “no toxicity attributable to the drug substance”. Moreover, the “radioactivity in the tumor (peak)” value in data set [7] (48 hours after administration) was 1.14±0.01 % of ID/g. The blood levels in data set [7] (120 hours) is recorded as 0.6±0.1 % of ID/g. In addition, the “time of peak tumor radioactivity” value in data set [7] (after administration) worked out at 48 h.
